This is an account of results in EP4660182A1, “NAV1.7- AND/OR NAV1.8-INHIBITING ARYL PYRIDINE COMPOUNDS, PROCESSES FOR THE PREPARATION THEREOF, COMPOSITIONS, USES, METHODS FOR TREATMENT USING SAME, AND KITS” (Eurofarma Laboratórios S.A., priority 2023, dated 2024).

Where only a bound is given, the exact number is not on record here.

Test [1] concerns the target T1, human sodium channels Nav 1.8 (Homo sapiens, UniProt Q9Y5Y9).
T1 construct: expressed in transfected cells
As to the kind of experiment: Automated whole-cell voltage-clamp (ScreenPatch 384P) sodium current block, Nav 1.8. Format: cell-based. Conditions: CHO cells stably expressing human Nav 1.8; inactivation step -40 mV 8 s, test step 10 mV (TP1A); eight concentrations; exposure at least five minutes; room temperature; read-out: Nav1.8 IC50. Put shortly: (§1)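 Stable CHO lines, whole-cell automated patch clamp at room temperature, ≥5 min exposure, eight concentrations. From -100 mV hold, 8 s at -40 mV, 20 ms at -100 mV, then test pulse to 10 mV (Nav 1.8) or 0 mV (Nav 1.7) at 0.05 Hz; peak-current % block fitted for IC50, averaged over repeats.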

Test [2] deals with T2, human sodium channels Nav 1.7 (Homo sapiens, UniProt Q15858).
T2 construct: expressed in transfected cells
In words: Automated whole-cell voltage-clamp (ScreenPatch 384P) sodium current block, Nav 1.7. The test is classed as cell-based. Conditions: CHO cells stably expressing human Nav 1.7; inactivation step -40 mV 8 s, test step 0 mV (TP1A); eight concentrations; exposure at least five minutes; room temperature; read-out: Nav1.7 IC50. Put shortly: as §1

T1 sequence (Q9Y5Y9 whole entry): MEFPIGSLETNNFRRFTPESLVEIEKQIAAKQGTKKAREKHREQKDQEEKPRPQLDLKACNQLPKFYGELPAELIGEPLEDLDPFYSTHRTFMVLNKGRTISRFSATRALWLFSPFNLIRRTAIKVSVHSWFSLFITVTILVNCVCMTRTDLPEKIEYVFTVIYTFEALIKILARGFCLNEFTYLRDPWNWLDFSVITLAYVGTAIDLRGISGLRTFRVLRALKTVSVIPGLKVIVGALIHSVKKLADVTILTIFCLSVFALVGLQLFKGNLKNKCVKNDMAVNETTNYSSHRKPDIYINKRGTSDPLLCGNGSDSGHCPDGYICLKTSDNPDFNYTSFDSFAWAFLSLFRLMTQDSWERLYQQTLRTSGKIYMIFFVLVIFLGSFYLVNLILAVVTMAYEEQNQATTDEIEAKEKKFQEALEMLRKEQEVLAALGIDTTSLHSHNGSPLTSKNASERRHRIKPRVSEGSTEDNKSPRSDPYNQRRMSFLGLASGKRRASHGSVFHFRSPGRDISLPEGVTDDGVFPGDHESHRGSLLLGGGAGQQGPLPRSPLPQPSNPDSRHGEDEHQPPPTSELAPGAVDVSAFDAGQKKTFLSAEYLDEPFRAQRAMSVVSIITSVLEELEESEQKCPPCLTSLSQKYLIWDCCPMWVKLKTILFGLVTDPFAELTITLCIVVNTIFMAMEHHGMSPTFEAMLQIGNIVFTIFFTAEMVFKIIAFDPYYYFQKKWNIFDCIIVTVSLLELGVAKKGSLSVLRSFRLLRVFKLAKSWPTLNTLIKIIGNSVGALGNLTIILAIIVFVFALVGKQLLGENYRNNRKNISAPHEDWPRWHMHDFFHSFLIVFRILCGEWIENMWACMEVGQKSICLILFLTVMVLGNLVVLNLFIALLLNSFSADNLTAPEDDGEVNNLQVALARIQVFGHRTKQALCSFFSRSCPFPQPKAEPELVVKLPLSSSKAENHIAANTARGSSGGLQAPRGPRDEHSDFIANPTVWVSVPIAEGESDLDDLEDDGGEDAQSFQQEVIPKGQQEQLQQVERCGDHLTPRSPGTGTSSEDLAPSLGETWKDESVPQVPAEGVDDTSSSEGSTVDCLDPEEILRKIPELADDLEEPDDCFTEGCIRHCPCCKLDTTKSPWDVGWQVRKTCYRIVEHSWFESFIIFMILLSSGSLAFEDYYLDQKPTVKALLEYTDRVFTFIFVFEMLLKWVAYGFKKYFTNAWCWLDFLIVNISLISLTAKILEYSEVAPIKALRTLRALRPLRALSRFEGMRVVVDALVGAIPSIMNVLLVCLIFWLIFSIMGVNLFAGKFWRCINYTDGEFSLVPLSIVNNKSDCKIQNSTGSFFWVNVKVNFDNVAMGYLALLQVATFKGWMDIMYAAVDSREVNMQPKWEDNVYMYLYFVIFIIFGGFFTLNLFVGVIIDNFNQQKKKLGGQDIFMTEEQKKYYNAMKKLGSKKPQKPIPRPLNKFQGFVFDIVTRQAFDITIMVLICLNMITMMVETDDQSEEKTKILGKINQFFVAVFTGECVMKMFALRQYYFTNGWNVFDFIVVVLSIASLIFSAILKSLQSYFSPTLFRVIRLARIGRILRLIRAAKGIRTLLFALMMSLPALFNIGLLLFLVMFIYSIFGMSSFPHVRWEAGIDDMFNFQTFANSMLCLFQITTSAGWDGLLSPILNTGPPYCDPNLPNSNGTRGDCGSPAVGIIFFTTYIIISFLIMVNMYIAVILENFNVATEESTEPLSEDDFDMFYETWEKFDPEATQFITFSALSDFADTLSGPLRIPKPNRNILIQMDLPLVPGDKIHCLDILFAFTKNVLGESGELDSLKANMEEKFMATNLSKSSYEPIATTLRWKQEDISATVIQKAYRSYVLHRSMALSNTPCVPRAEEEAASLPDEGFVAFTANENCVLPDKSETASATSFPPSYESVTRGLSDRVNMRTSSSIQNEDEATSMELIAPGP
T2 sequence (Q15858 whole entry): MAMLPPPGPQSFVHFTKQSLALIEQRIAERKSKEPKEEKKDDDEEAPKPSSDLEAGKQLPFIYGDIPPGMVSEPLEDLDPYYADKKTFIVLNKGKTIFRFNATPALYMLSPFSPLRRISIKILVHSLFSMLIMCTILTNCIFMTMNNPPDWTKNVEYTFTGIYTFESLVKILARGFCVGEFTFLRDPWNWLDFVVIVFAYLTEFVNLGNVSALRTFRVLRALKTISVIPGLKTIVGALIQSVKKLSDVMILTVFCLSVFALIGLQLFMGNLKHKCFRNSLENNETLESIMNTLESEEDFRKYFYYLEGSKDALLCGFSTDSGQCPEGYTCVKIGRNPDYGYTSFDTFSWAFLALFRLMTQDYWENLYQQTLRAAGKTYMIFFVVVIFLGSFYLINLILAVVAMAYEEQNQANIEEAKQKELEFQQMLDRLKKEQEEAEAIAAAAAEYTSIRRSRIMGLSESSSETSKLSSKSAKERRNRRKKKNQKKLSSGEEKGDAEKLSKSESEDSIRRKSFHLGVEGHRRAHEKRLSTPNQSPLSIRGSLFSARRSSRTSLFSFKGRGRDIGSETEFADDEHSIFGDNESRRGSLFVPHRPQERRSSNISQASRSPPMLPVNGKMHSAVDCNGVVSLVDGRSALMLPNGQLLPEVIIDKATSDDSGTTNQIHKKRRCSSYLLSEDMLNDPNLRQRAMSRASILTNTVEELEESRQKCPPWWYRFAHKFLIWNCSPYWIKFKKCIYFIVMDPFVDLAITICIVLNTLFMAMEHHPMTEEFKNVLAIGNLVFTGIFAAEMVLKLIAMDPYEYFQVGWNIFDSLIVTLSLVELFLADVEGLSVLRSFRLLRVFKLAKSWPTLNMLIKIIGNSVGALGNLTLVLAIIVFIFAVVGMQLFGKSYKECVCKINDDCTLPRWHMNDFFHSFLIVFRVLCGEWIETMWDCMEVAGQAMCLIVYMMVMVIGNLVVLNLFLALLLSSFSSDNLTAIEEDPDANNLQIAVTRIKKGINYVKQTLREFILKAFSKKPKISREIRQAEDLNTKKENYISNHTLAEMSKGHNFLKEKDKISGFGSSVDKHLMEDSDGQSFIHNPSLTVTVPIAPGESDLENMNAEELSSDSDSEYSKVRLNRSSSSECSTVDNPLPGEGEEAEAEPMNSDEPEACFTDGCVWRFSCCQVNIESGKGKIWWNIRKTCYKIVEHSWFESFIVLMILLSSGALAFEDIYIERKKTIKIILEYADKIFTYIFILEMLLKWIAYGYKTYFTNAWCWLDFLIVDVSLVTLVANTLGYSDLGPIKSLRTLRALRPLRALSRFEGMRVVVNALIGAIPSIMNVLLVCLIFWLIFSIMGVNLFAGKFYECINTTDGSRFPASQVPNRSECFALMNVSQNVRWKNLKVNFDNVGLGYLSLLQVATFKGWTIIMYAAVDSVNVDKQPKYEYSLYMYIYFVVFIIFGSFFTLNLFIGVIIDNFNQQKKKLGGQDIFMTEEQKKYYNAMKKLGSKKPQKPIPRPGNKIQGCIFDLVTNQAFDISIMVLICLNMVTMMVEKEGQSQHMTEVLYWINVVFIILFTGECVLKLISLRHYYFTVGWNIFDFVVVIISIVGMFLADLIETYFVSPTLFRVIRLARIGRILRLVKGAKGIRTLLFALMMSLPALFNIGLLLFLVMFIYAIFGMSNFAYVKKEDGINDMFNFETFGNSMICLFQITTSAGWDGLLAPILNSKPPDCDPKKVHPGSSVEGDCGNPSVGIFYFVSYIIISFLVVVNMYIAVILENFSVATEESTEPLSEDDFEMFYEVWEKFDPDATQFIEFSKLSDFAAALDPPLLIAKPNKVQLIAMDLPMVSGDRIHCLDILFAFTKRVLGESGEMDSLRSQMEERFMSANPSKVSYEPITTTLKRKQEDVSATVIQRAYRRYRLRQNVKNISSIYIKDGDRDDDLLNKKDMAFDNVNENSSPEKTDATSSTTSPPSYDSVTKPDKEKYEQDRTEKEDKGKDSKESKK

As for `CCOc1ccc(-c2cncc(C(=O)N/N=C/c3cc(OC)cnc3F)n2)c(OC)n1` [Compound 154, (E)-6-(6-ethoxy-2-methoxypyridine-3-yl)-N'-((2-fluoro-5-methoxypyridine-3-yl)methylene)pyrazine-2-carbohydrazide], the concentration for half-maximal inhibition (IC50) in test [1] and in test [2] was below 500 nM each time.

As for `CCOc1ncc(-c2cncc(C(=O)N/N=C/c3cc(OC)cnc3F)n2)cc1O` [Compound 157, (E)-6-(6-ethoxy-5-hydroxypyridine-3-yl)-N'-((2-fluoro-5-methoxypyridine-3-yl)methylene) pyrazine-2-carbohydrazide], the 50% inhibitory concentration (IC50) (in general, the midpoint of a concentration-inhibition curve) in test [1] is 500 to 1000 nM; in test [2], above 1000 nM.

`COc1cnc(F)c(/C=N/NC(=O)c2cncc(-c3ccc(OC(F)F)nc3C)n2)c1` [Compound 159, (E)-6-(6-(difluoromethoxy)-2-methylpyridine-3-yl)-N'-((2-fluoro-5-methoxypyridine-3-yl)methylene)pyrazine-2-carbohydrazide]: the 50% inhibitory concentration (IC50) is below 500 nM in test [1] and above 1000 nM in test [2].

As to `COc1cnc(F)c(/C=N/NC(=O)c2cncc(-c3cnc(OC(F)F)cc3C)n2)c1` [Compound 160, (E)-6-(6-(difluoromethoxy)-4-methylpyridine-3-yl)-N'-((2-fluoro-5-methoxypyridine-3-yl)methylene)pyrazine-2-carbohydrazide], the IC50 in test [1] and in test [2] was below 500 nM throughout.

Take `COc1ccc(F)c(/C=N/NC(=O)c2cncc(-c3cnc4nc[nH]c4c3)n2)c1` [Compound 166, (E)-N'-(2-fluoro-5-methoxybenzylidene)-6-(1H-imidazo[4,5-b]pyridine-6-yl) pyrazine-2-carbohydrazide]: the IC50 in test [1] and in test [2] was above 1000 nM throughout.

`COc1cnc(F)c(/C=N/NC(=O)c2cncc(-c3ccc(O)nc3)n2)c1` [Compound 167, (E)-N'-((2-fluoro-5-methoxypyridine-3-yl)methylene)-6-(6-hydroxypyridine-3-yl) pyrazine-2-carbohydrazide]: the IC50 in test [1] and in test [2] was above 1000 nM in each case.

On to `[2H]C([2H])([2H])COc1ccc(-c2cncc(C(=O)N/N=C/c3cc(OC)cnc3F)n2)cn1` [Compound 168, (E)-6-(6-(ethoxy-2,2,2-d3)pyridine-3-yl)-N'-((2-fluoro-5-methoxypyridine-3-yl)methylene)pyrazine-2-carbohydrazide], for which the concentration for half-maximal inhibition (IC50) in test [1] was below 500 nM; in test [2], above 1000 nM.

In the case of `[2H]C([2H])(C)Oc1ccc(-c2cncc(C(=O)N/N=C/c3cc(OC)cnc3F)n2)cn1` [Compound 169, (E)-6-(6-(ethoxy-1,1-d2)pyridine-3-yl)-N'-((2-fluoro-5-methoxypyridine-3-yl)methylene)pyrazine-2-carbohydrazide], the IC50 is below 500 nM in test [1] and above 1000 nM in test [2].

Turning to `[2H]C([2H])([2H])C([2H])([2H])Oc1ccc(-c2cncc(C(=O)N/N=C/c3cc(OC)cnc3F)n2)cn1` [Compound 170, (E)-6-(6-(ethoxy-d5)pyridine-3-yl)-N'-((2-fluoro-5-methoxypyridine-3-yl)methylene) pyrazine-2-carbohydrazide], the IC50 in test [1] was below 500 nM; in test [2], above 1000 nM.

For the compound `[2H]C([2H])([2H])Oc1cnc(F)c(/C=N/NC(=O)c2cncc(-c3ccc(OCC)nc3)n2)c1` [Compound 171, (E)-6-(6-ethoxypyridine-3-yl)-N'-((2-fluoro-5-(methoxy-d3)pyridine-3-yl)methylene) pyrazine-2-carbohydrazide], the 50% inhibitory concentration (IC50) in test [1] is below 500 nM; in test [2] it was above 1000 nM.

Turning to `[2H]C([2H])([2H])Oc1cnc(F)c(/C=N/NC(=O)c2cncc(-c3ccc(OC([2H])([2H])C)nc3)n2)c1` [Compound 172, (E)-6-(6-(ethoxy-1,1-d2)pyridine-3-yl)-N'-((2-fluoro-5-(methoxy-d3)pyridine-3-yl)methylene)pyrazine-2-carbohydrazide], the IC50 is below 500 nM in test [1] and above 1000 nM in test [2].

On to `[2H]C([2H])([2H])COc1ccc(-c2cncc(C(=O)N/N=C/c3cc(OC([2H])([2H])[2H])cnc3F)n2)cn1` [Compound 173, (E)-6-(6-(ethoxy-2,2,2-d3)pyridine-3-yl)-N'-((2-fluoro-5-(methoxy-d3)pyridine-3-yl)methylene)pyrazine-2-carbohydrazide], for which the values for the IC50 in test [1] and in test [2] were below 500 nM and above 1000 nM, respectively.

With `[2H]C([2H])([2H])Oc1cnc(F)c(/C=N/NC(=O)c2cncc(-c3ccc(OC([2H])([2H])C([2H])([2H])[2H])nc3)n2)c1` [Compound 174, (E)-6-(6-(ethoxy-d5)pyridine-3-yl)-N'-((2-fluoro-5-(methoxy-d3)pyridine-3-yl)methylene)pyrazine-2-carbohydrazide], the IC50 in test [1] is below 500 nM; in test [2], above 1000 nM.

As to `CCOc1ccc(-c2cncc(C(=O)N(C)/N=C/c3cc(OC)cnc3F)n2)cn1` [Compound 175, (E)-6-(6-ethoxypyridine-3-yl)-N'-((2-fluoro-5-methoxypyridine-3-yl)methylene)-N-methylpyrazine-2-carbohydrazide], the concentration for half-maximal inhibition (IC50) in test [1] and in test [2] was above 1000 nM throughout.

As for `COc1cnc(F)c(/C=N/N(C)C(=O)c2cncc(-c3ccc(OC(F)F)nc3)n2)c1` [Compound 176, (E)-6-(6-(difluoromethoxy)pyridine-3-yl)-N'-((2-fluoro-5-methoxypyridine-3-yl)methylene)-N-methylpyrazine-2-carbohydrazide], the IC50 in test [1] and in test [2] was above 1000 nM each time.
